In patent publication US20040023861A1, “Cysteinyl leukotriene receptor 2 (cysl t2)” (priority 2000, published 2004):
One block for each compound: values may come before it.

Columns and labels:
HIPHUM0000007 = molecular target: T1, HIPHUM0000007 (Homo sapiens, UniProt Q9NS75); assay: Antagonist activity against 20 nM LTD4 (NFAT luciferase reporter gene assay and FLIPR assay) at HIPHUM0000007; assay type: cell-based; conditions: concentration dependent inhibition of 20 nM LTD4; reporter gene and FLIPR assays
T1 construct: expressed in transfected cells; host or cells: CHO cells with stably integrated NFAT-luciferase reporter (CHONFAT)
T1 sequence (Q9NS75 1-346): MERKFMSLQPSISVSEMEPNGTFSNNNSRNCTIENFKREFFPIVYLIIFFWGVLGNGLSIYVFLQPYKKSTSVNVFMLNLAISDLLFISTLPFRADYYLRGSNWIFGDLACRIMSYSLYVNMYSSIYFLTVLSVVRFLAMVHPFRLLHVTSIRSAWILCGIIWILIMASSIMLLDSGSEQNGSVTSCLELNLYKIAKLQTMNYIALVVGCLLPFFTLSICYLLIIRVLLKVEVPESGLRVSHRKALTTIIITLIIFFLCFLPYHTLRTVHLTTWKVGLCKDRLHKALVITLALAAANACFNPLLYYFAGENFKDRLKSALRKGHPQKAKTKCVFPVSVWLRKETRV

CysLT1 = molecular target: T2, CysLT1 (Homo sapiens, UniProt Q9Y271); assay: Antagonist activity against 20 nM LTD4 (NFAT luciferase reporter gene assay and FLIPR assay) at CysLT1; assay type: cell-based; conditions: concentration dependent inhibition of 20 nM LTD4; reporter gene and FLIPR assays
T2 construct: expressed in transfected cells; host or cells: CHO cells with stably integrated NFAT-luciferase reporter (CHONFAT)
T2 sequence (Q9Y271 1-337): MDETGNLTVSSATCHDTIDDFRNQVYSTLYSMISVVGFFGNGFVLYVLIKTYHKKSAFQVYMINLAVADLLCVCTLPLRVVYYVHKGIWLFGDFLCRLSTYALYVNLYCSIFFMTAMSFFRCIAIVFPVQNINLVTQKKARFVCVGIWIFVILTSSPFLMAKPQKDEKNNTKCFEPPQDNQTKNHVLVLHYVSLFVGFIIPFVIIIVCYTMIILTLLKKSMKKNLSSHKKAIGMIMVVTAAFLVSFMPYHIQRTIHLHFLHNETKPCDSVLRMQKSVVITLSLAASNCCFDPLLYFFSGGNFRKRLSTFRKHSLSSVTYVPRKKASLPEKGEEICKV

anesthetized rats = assay: Effect of LTD4 on hemodynamics and ECG parameters in anesthetized rats; assay type: in vivo
Method: Adult male wistar rats (270-300 g) were used. On arrival in the animal care unit, rats were housed with free access to food and water. Room temperature (19-20° C.), relative humidity (55-60%) and light (switched on 7:00am-7:00pm) were maintained constant. An adaptation period of at least 6 days was respected before experimentation.
Aninals (n=3-4) were anesthetized by administration of pentobarbital (50/60 mg/kg, i.v.). Then, animals were placed on a heatcd (36° C.) operating table and ventilated with room air (Harvard respirator, 50-52 str/min, 7 ml/kg tidal volume). Systemic arterial blood pressure was monitored routinely from the left carotid artery (P23XL, Gould). Body temperature was controlled with a thermistor probe (Digi-sense, Cole-Parmer) and maintained within physiological range throughout the experiment by heating when necessary. A Lead 11 ECG was recorded via needle electrodes to evaluate ECG intervals and heart rate and a corrected QT interval by linear regression (QTL) was calculated according to Todt(13). All parameters were monitored on a Gould thermal array polyrecorder.
The volume of injection was normalized to 1 ml/kg. In rats receiving CysLT1 antagonists as pretreatment, the compounds were previously dissolved in ethanol (2% final concentration) or distilled water and mixed in encapsin 6% for intragastric afministration (single dose of 3 μmol/kg-10 ml/kg total volume).
Results were expressed as mean±SEM Hemodynamic and electrocardiographic variables were compared using Anova followed by multiple comparisons tests (Newmam Keuls or Tukey's test as appropriate). Values of p <0.05 were considered significant.

SMILES: CCCCC/C=C\C\C=C/C=C/C=C/[C@@H](Sc1ccc(C(=O)O)cc1)[C@@H](O)CCCC(=O)O [BayU9773]
antagonist activity at HIPHUM0000007 (HIPHUM0000007): low potency
antagonist activity at CysLT1 (CysLT1): low potency

SMILES: CCCCC/C=C\C\C=C/C=C/C=C/[C@@H](SC[C@H](N)C(=O)NCC(=O)O)[C@@H](O)CCCC(=O)O [LTD4]
effect on blood pressure (anesthetized rats; LTD4 i.v. injection 20, 40 and 100 nmol/kg, anesthetized rats): affected blood pressure in a dose-dependent manner
reduction in heart rate (anesthetized rats; bolus intravenous administration of LTD4, anesthetized rats): 20-30%
rhythm disturbances (arrhythmias) (anesthetized rats; repeated administration of LTD4, doses in the range of 40 to 60 nmol/kg, anaesthetised rats): induced marked rhythm disturbances

SMILES: CN(C)C(=O)CCSC(SCCC(=O)O)c1cccc(/C=C/c2ccc3ccc(Cl)cc3n2)c1 (stereo not drawn) [MK571]
effect of CysLT1 antagonist on LTD4 response on blood pressure (anesthetized rats; antagonist 3 μmol/kg oral 10 min or 0.3 μmol/kg i.v. 5 min before LTD4 i.v., anesthetized rats): modest partial inhibition
effect of pretreatment on LTD4-induced reduction in heart rate (anesthetized rats; pretreatment with CysLT1 antagonist before LTD4 i.v., anesthetized rats): not significantly altered

More lines, now with the values ahead:

antagonist activity at HIPHUM0000007 (HIPHUM0000007): inactive
SMILES: CC(C)(O)c1ccccc1CC[C@@H](SCC1(CC(=O)O)CC1)c1cccc(/C=C/c2ccc3ccc(Cl)cc3n2)c1 [Montelukast]

antagonist activity at CysLT1 (CysLT1): acted as antagonists
SMILES: COc1cc(C(=O)NS(=O)(=O)c2ccccc2C)ccc1Cc1cn(C)c2ccc(NC(=O)OC3CCCC3)cc12 [Zafirlukast]
